In publication PMC10045534, “Preparation and Evaluation of 6-Gingerol Derivatives as Novel Antioxidants and Antiplatelet Agents” (Antioxidants, 2023):

assay: PAMPA-BBB permeability; format: in vitro ADME; details: PAMPA; after 4 h at 37 °C in PBS, pH 7.4; mean ± SEM, n = 3; read-out: PAMPA-BBB Pe
Description: Preparative purifications over RP-HPLC were performed on a Kinetex XB C18 (5 μm, 250 × 21.2 mm) column on an Armen Spot Prep II integrated HPLC purification system (Gilson, Middleton, WI, USA) with dual-wavelength detection, with an adequately chosen combination of acetonitrile–water, and a flow rate of 15 mL/min. The purity of the compounds obtained was determined by RP-HPLC analyses on a system of two Jasco PU 2080 pumps, a Jasco AS-2055 Plus intelligent sampler connected to a JASCO LC-Net II/ADC equipped with a Jasco MD-2010 Plus PDA detector (Jasco International Co. Ltd., Hachioji, Tokyo, Japan) utilizing a Kinetex C-18 (5 μm, 250 × 4.6 mm) column (Phenomenex Inc., Torrance, CA, USA) and applying a gradient of 30%–100% aqueous AcN in 30 min followed by 100% ACN for 10 min with a flow rate of 1 mL/min. Analysis of samples from the PAMPA and kinetic solubility assays was performed the same way, by using 3-point calibrations and integrating each compound at its UV absorption maximum.
Blood–brain barrier-specific (BBB) permeability measurements were carried out us- ing the PAMPA-BBB model. […] The solutions were sonicated for 10 min at room temperature. To prepare the artificial BBB-specific membrane, 16 mg BPLE were dissolved in 600 μL of n-dodecane:n-hexane (25:75). Each well of the donor plate (MultiscreenTM-IP, MAIPNTR10, pore size […], Merck kGaA) was coated with 5 μL lipid solution and fitted into the acceptor plate containing 300 μL PBS (pH 7.4) with 5% DMSO, and 150–150 μL of the PBS solutions (made from the DMSO stock solutions) were placed on the donor plate’s artificial membrane. The sandwich plate system was covered with a tissue of wet paper and a plastic lid to avoid evaporation of the solvent, and it was incubated at 37 °C for 4 h. In the end, the initial 500 μM solutions ( cD0 ), the donor ( cDt ) and acceptor solution ( cAt ) were analysed by HPLC-UV (see Section 2.1). BBB permeability was calculated using the effective permeability equation used for iso-pH conditions described by A. Avdeef as follows. (2) Pe=−2.303/A·t−τss·1/1+rv·lg−rv+1+rv/1−MR·cDt/cD0 (3) MR=1−cDt/cD0−VAcAt/VDcD0 where A is the filter area (0.3 cm^2), VD and VA are the volumes in the donor (0.15 cm^3) and acceptor phase (0.3 cm^3), t is the incubation time (s), τss is the time to reach steady state (s), cDt is the concentration of the compound in the donor phase at time point t (mol/cm^3), cD0 is the concentration of the compound in the donor phase at time point zero (mol/cm^3), cAt is the concentration of the compound in the acceptor phase at time point t (mol/cm^3), rv is the aqueous compartment volume ratio (VD/VA).

Row | SMILES | Papp at 4 h, 500 μM
1 | CCCCC[C@H](O)CC(=O)CCc1ccc(O)c(OC)c1 [Compound 1, (S)-5-hydroxy-1-(4-hydroxy-3-methoxyphenyl)decan-3-one] | 3.52 ± 0.24 ×10⁻⁶ cm/s
2 | CCCCC[C@H](O)C[C@H](O)CCc1ccc(O)c(OC)c1 [Compound 5, (3R,5S)-1-(4-hydroxy-3-methoxyphenyl)decane-3,5-diol] | 3.39 ×10⁻⁶ cm/s
3 | CCCCCCCNC(=O)CCc1ccc(O)c(OC)c1 [Compound 22] | 3.22 ± 0.34 ×10⁻⁶ cm/s
4 | CCCCC[C@H](O)C[C@@H](O)CCc1ccc(O)c(OC)c1 [Compound 6, (3S,5S)-1-(4-hydroxy-3-methoxyphenyl)decane-3,5-diol] | 2.74 ± 0.16 ×10⁻⁶ cm/s

Second part, the compound after the results:

Row | Papp at 4 h, 500 μM | SMILES
5 | 3.17 ± 0.36 ×10⁻⁶ cm/s | CCCCC/C=C/C(=O)CCc1ccc(O)c(OC)c1 [Compound 2, 6-shogaol]
6 | 2.07 ± 0.43 ×10⁻⁶ cm/s | CCCCCc1cc(CCc2ccc(O)cc2)[nH]n1 [Compound 15, 4-(2-(3-pentyl-1H-pyrazol-5-yl)ethyl)phenol]
7 | 1.58 ± 0.08 ×10⁻⁶ cm/s | CCCCCc1cc(CCc2ccc(O)c(OC)c2)[nH]n1 [Compound 14, 2-methoxy-4-(2-(3-pentyl-1H-pyrazol-5-yl)ethyl)phenol]

same assay, conditions: after 4 h at 37 °C in PBS, pH 7.4; mean ± SEM, n = 3

Row | SMILES | PAMPA-BBB MR (%) | PAMPA-BBB Pe
8 | CCCCC[C@H](O)CC(=O)CCc1ccc(O)c(OC)c1 [Compound 1, (S)-5-hydroxy-1-(4-hydroxy-3-methoxyphenyl)decan-3-one] | 23.8 ± 1.5% | ≥ 25 ·10^−7 cm/s
9 | CCCCC[C@H](O)C[C@H](O)CCc1ccc(O)c(OC)c1 [Compound 5, (3R,5S)-1-(4-hydroxy-3-methoxyphenyl)decane-3,5-diol] | 9.1 ± 7.6% | ≥ 25 ·10^−7 cm/s
10 | CCCCCCCNC(=O)CCc1ccc(O)c(OC)c1 [Compound 22] | 12.1 ± 5.2% | ≥ 25 ·10^−7 cm/s
11 | CCCCC[C@H](O)C[C@@H](O)CCc1ccc(O)c(OC)c1 [Compound 6, (3S,5S)-1-(4-hydroxy-3-methoxyphenyl)decane-3,5-diol] | 18.5 ± 2.7% | ≥ 25 ·10^−7 cm/s
12 | CCCCCCCC(CCc1ccc(O)c(OC)c1)=NO [Compound 4, 1-(4-hydroxy-3-methoxyphenyl)decan-3-one oxime] | -/4.0 ± 11.1% | 

The remaining lines, values ahead:

Row | PAMPA-BBB MR (%) | PAMPA-BBB Pe | SMILES
13 | 20.9 ± 3.9% | ≥ 25 ·10^−7 cm/s | CCCCC/C=C/C(=O)CCc1ccc(O)c(OC)c1 [Compound 2, 6-shogaol]
14 | -/11.0 ± 0.7% |  | CCCCCCCC(=O)CCc1ccc(O)c(OC)c1 [Compound 3, 4,5-dihydro-6-shogaol]
15 | 3.1 ± 5.7% |  | CCCCCc1cc(CCc2ccc(O)cc2)[nH]n1 [Compound 15, 4-(2-(3-pentyl-1H-pyrazol-5-yl)ethyl)phenol]
16 | 33.6 ± 4.6% |  | CCCCCc1cc(CCc2ccc(O)c(OC)c2)[nH]n1 [Compound 14, 2-methoxy-4-(2-(3-pentyl-1H-pyrazol-5-yl)ethyl)phenol]
